The values that follow come from US8673854B2, “Prophylactic agent for heart failure” (Calpis Co., Ltd., priority 2007, dated 2014).

Holding throughout (format): in vivo, male Wistar rats
Experiment [1] deals with rat right ventricle wall thickening. As to the kind of experiment: Test 2: effect to suppress right ventricle wall thickening in rats administered with L-NAME. Particulars: compared with L-NAME alone; drinking water with L-NAME 1 g/L plus VPP 0.3 g/L or Enalapril 0.5 mg/L, ad libitum for eight weeks; FIG. 2.
Experiment [2] relates to rat left ventricle wall thickening. The experiment can be described thus: Test 3: effect to suppress left ventricle wall thickening in rats administered with L-NAME. The following applies: compared with L-NAME alone; drinking water with L-NAME 1 g/L plus IPP 0.3 g/L or Enalapril 0.5 mg/L, ad libitum for eight weeks; FIG. 3. As for the experimental part: (§1) The tripeptide Ile Pro Pro (IPP) was also tested for the suppressive effect against the thickening of the ventricle wall. The test was carried out using three groups of male Wistar rats of seven weeks old (Japan SLC, Inc.), each of which group consist of 9 to 11 rats. After acclimation for a week, the animals received: water with L-NAME (manufactured by Sigma) being dissolved at a concentration of 1 g/L; water with L-NAME and IPP being dissolved at a concentration of 1 g/L and 0.3 g/L respectively; or water with L-NAME and angiotensin converting enzyme (ACE) inhibitor, Enalapril at a concentration of 1 g/L and 0.5 mg/L respectively, ad libitum for eight weeks. The dose of Enalapril was determined such that its activity to inhibit ACE was equivalent to the activity of IPP to inhibit ACE.
The rats were sacrificed by exsanguination under diethylether anesthesia. […] The sliced thin sections were stained with hematoxylin and eosin and the thickness of the left ventricle wall was measured. As for the measurement of the thickness of the ventricle wall, the thickness of a plural of the points for one section, each of which point was considered to have an average thickness, was actually measured with an ocular micrometer under a microscope. The average thickness was defined as the measured value of the section and subjected to statistical analysis. […]

Experiment [3] deals with rat right ventricle wall thickening. The experiment can be described thus: Test 4: effect to suppress right ventricle wall thickening in rats administered with L-NAME. Particulars: L-NAME 1 g/L plus IPP 0.3 g/L or Enalapril 0.5 mg/L in water, eight weeks; for Normal (right ventricle wall equal to or smaller than reference value) / Thickening Positive (right ventricle wall thicker than reference value of rats without L-NAME): likelihood-ratio test, IPP group p < 0.01. The method, then:
In order also to check the effect of the tripeptide Ile Pro Pro (IPP) to suppress the thickening of the right ventricle wall, a test was carried out in the same manner as in Test 3, and measurement and evaluation were made.
as §1, with “The” for “The tripeptide Ile Pro Pro (IPP) was also tested for the suppressive effect against the thickening of the ventricle wall. The”, “12” for “11”, “animal” for “animals”
The rats were sacrificed by exsanguination under diethylether anesthesia. The heart was enucleated and then fixed with 10% neutral buffered formalin solution. Annularly-shaped tissue samples were prepared from the fixed heart by horizontally excising the lower part of the atria such that the right ventricle, septum, left ventricle, and coronary artery were included. The specimen were embedded in paraffin and cut into thin sections with a thickness of 3.0 to 3.5 μm using a microtome. Two to five sections per rat were prepared. Slices of the thin sections were stained with hematoxylin and eosin and the thickness of the right ventricle wall was measured. As for the measurement of the thickness of the ventricle wall, the thickness of a plural of the points for one section, each of which point was considered to have an average thickness, was actually measured with an ocular micrometer under a microscope. The average thickness was defined as the measured value of the section and the thickness of the ventricle wall of each individual was determined. The measurement and evaluation of the thickness was carried out by a pathologist who was not informed of the name of each sample.
The evaluation of the thickening of the ventricle wall involved the measurement of the thickness of the ventricle wall of six rats of the same age in weeks, which rats were fed with general tap water with no L-NAME being added. The average of those was defined as a reference value. In cases where the thickness of its ventricle wall was larger than the reference value, a rat was defined as one with the thickening, whereas in cases where the thickness of its ventricle wall was equal to or smaller than the reference value, a rat was considered to be normal. Using the number of the rats with the thickening and the normal rats, comparisons by likelihood-ratio test were made.

For experiment [4], the system named is rat heart septal wall thickening. As to the kind of experiment: Test 5: effect to suppress heart septal wall thickening in rats administered with L-NAME. Particulars: compared with L-NAME alone; drinking water with L-NAME 1 g/L plus IPP 0.3 g/L or Enalapril 0.5 mg/L, ad libitum for eight weeks; FIG. 4.
The subject of experiment [5] is rat left ventricle wall thickening. As to the kind of experiment: Test 1: effect to suppress left ventricle wall thickening in rats administered with L-NAME. Particulars: compared with L-NAME alone; drinking water with L-NAME 1 g/L plus VPP 0.3 g/L or Enalapril 0.5 mg/L, ad libitum for eight weeks; FIG. 1. The method, then:
The tripeptide Val Pro Pro (VPP) was tested for the effect of suppressing the thickening of the left ventricle. The test was carried out using three groups of male Wistar rats of seven weeks old (Japan SLC, Inc.), each of which group consisted of 9 to 12 rats. […] The dose of Enalapril was determined such that its activity to inhibit ACE was equivalent to VPP's.
The rats were sacrificed by exsanguination under diethylether anesthesia. […] The sliced thin sections were stained with hematoxylin and eosin and the thickness of the left ventricle wall was measured. As for the measurement of the thickness of the ventricle wall, the thickness of a plural of the points per one section, each of which point was considered to have an average thickness, was actually measured with an ocular micrometer under a microscope. The average thickness was defined as the measured value of the section and subjected to statistical analysis. […]

Consider `CCOC(=O)[C@H](CCc1ccccc1)N[C@@H](C)C(=O)N1CCC[C@H]1C(=O)O` [Enalapril], for which, in experiment [1], the “thickness of the right ventricle wall” value is reported as “did not show such an effect”. For the same molecule, the “thickness of the left ventricle wall” value in experiment [2] is recorded as “did not exhibit such an effect”. In experiment [3], the “suppression of the thickening of the right ventricle wall (result in words)” value is “did not exhibit such an effect”, the “Normal (right ventricle wall equal to or smaller than reference value)” value stood at 8 rats and the “Thickening Positive (right ventricle wall thicker than reference value of rats without L-NAME)” value stood at 1 rat^ rats. The “thickness of the heart septal wall” value in experiment [4] is “did not exhibit the effect”. Further, the “thickness of the left ventricle wall” value in experiment [5] is listed as “did not exhibit the effect”.
Take Ile Pro Pro [IPP]: the “thickness of the left ventricle wall” value in experiment [2] is recorded as “showed a decrease in the thickness of the left ventricle wall”. Besides, in experiment [3], the “suppression of the thickening of the right ventricle wall (result in words)” value is listed as “suppressed the thickening of the right ventricle wall”, the “Normal (right ventricle wall equal to or smaller than reference value)” value is 9 rats and the “Thickening Positive (right ventricle wall thicker than reference value of rats without L-NAME)” value came out at 0 rats. In addition, the “thickness of the heart septal wall” value in experiment [4] is on record as “showed a decrease in the thickness of the heart septal wall”.
With Val Pro Pro [VPP], the “thickness of the right ventricle wall” value in experiment [1] is reported as “showed a decrease in the thickness of the right ventricle wall”. Moreover, the “thickness of the left ventricle wall” value in experiment [5] is given as “showed a decrease in the thickness of the left ventricle wall”.
